Experimental findings from ChEMBL document CHEMBL1201862, “PubChem BioAssay data set” (2004) are described below.

SMILES strings stand for the structures. Several values for one entry are separate records, joined by “and”; a condition that tells them apart may be missing. Equal entries are not always repeated.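 Tested at 5 concentrations; 48 h exposure; 96-well plates; endpoints linearly interpolated, else capped at highest concentration. GI50 = concentration required for 50% inhibition of growth.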 Activity calls are given as the source filed them. Rule as the data show it: active = GI50 up to about 1.1 µM and inactive = higher. Bounds are passed on as bounds.

What all share (experiment): growth of human tumour cells (NCI), 48 h
Test [1] deals with DLD-1.
In test [2] the test system is DMS-273.
The test system of test [3] is HOP-18.
In test [4] the test system is KM-20L2.
The test system of test [5] is M19-MEL.
For test [6], the system named is SNB-78.
For test [7], the system named is T47D.

In the case of `Cc1ccc(/C=C/C(=O)c2sc(-n3nc(-c4ccccc4)cc3-c3ccccc3)nc2C)cc1`, the GI50 in test [1], in test [2], in test [3], in test [4], in test [5] and in test [6] was > 100 µM (inactive) throughout.
`CC(C)N1CCN(c2ccncc2S(=O)(=O)N2CCCCC2)CC1`: in test [7], the GI50 is > 100 µM (inactive).
For the molecule `O=S1(=O)CCN(c2ccccc2CC(c2c[nH]c3ccccc23)c2c[nH]c3ccccc23)CC1`, the GI50 is 4.37 µM (inactive) in test [1]; 8.63 µM (inactive) in test [2]; 14.4 µM (inactive) in test [3]; 8.85 µM (inactive) in test [4]; 5.74 µM (inactive) in test [5]; 30.1 µM (inactive) in test [6]. Moreover, the GI50 in test [7] was 6.35 µM (inactive).
On to `C=CC(=O)N1C/C(=C\c2ccc([N+](=O)[O-])cc2)C(=O)/C(=C/c2ccc([N+](=O)[O-])cc2)C1`, for which the GI50 in test [7] was 0.419 µM (active).
As for `Nc1ccn(C2OC(COC(=O)C34CC5CC(CC(C5)C3)C4)C(O)C2O)c(=O)n1` (stereo not given), the GI50 in test [1], in test [2], in test [3], in test [4], in test [5] and in test [6] was > 100 µM (inactive) in each case. In test [7], the GI50 is > 100 µM (inactive).
In the case of `O=C(O)C(Cc1ccccc1)Cc1ccccc1`, the GI50 in test [7] is > 100 µM (inactive).
Same read-out and setting: under `COc1c(C(=O)CC2c3c(cc4oc(C)cc(=O)c4c3OC)OC(=N)C2c2nc3ccccc3[nH]2)c(O)c(OC)c2occc12` (stereo not given) stands > 100 µM (inactive).
The same measure, in the same setting: under `Nc1nc2cc(Cl)ccc2n1N` stands > 100 µM (inactive).
Still for that read-out and setting: under `CC1C(c2ccc(Cl)cc2)c2cc3c(cc2OC1N1CCOCC1)OCO3` (stereo not given) stands 32.4 µM (inactive).
Consider `O=C(O)c1cccc(CN2CCCCC2)c1`, for which the GI50 in test [7] is > 100 µM (inactive).
Still for that read-out and setting: under `O=c1[nH]cc(/C=N\Nc2ccccc2)c(=O)[nH]1` stands 9.23 µM (inactive).
Same read-out and setting: under `O=C(OC(=C(c1ccccc1)c1ccccc1)N1CCCC1=S)C(c1ccccc1)c1ccccc1` stands 3.58 µM (inactive); under `COc1ccc2[nH]c3c(C)c4ccnc(NCCCN(C)CCCNc5ccc6ncn7c8ccccc8c(=O)c5c67)c4c(C)c3c2c1`, 0.979 µM (active).
Still for that read-out and setting: under `Clc1ccc(C2=C(c3ccccc3)C(c3ccc(Cl)cc3)N3C(=N[C@H]4CCCC[C@@H]43)N2)cc1` (stereo not given in full) stands 15.6 µM (inactive); under `Cc1ccc(-n2cnc3c(N)nc(N)nc32)cc1`, > 100 µM (inactive).
With `COc1cc(/C=C2/C(=O)N(C(=O)OC(C)C)C(Cc3cc(OC)c(OC)c(C)c3OC)C(=O)N2Cc2ccccc2)c(OC)c(C)c1OC` (stereo not given), the GI50 is > 100 µM (inactive) in test [1]; 14 µM (inactive) in test [2]; 49.5 µM (inactive) in test [3]; 24.8 µM (inactive) in test [4]; 57 µM (inactive) in test [5].
On to `CC(=O)NCCCCN(CCCNC(C)=O)C(=O)OCc1ccccc1`, for which, in test [7], the GI50 is > 100 µM (inactive).
`C=C1C(=O)OC2CC1C(OC(C)=O)C/C(C)=C/CC/C(C)=C\CCC2(C)O` (stereo not given): the GI50 in test [7] was 3.4 µM (inactive) and 4.56 µM (inactive).
Regarding `S=C1/C(=N/c2ccccc2)N(c2ccccc2)/C(=N\c2ccccn2)N1c1ccccc1`, in test [7], the GI50 is 15 µM (inactive).
On the same count and under the same terms, under `CC1(C)Oc2ccccc2OC1O` (stereo not given) stands > 100 µM (inactive).
On the same count and under the same terms, under `O=C1CCCc2ccc3c(c21)CC1(Cc2ccccc2C1)C3` stands 44.2 µM (inactive).
Same read-out and setting: under `CN(C(=O)Cc1cc(Cl)c(Cl)cc1NC(=O)CCCN)[C@H]1CCCC[C@@H]1N1CCCC1` stands 29.8 µM (inactive); under `N=C(c1ccc2ccccc2c1)c1ccccc1Cc1ccccc1`, 17.3 µM (inactive).
Regarding `CC(=O)Nc1ccc(-c2nnc(SCC(=O)Nc3cccc(C)c3)o2)cc1`, the GI50 in test [1] was 10.5 µM (inactive); in test [2], 10.3 µM (inactive); in test [3], 16.1 µM (inactive); in test [4], 10.2 µM (inactive); in test [5] it was 12.2 µM (inactive); in test [6], 13.7 µM (inactive).
Turning to `OCCOCCN1CCN(c2nc(N3CCCC3)c3nc(Cl)c(NCc4ccccc4)nc3n2)CC1`, the GI50 in test [7] was 13.2 µM (inactive).
Same read-out and setting: under `CCOC(=O)/C(C(N)=O)=C(O)/C(O)=C/C(=O)c1ccc(Cl)cc1` stands 18.6 µM (inactive).
Still for that read-out and setting: under `Cc1ccc([N+](=O)[O-])cc1S(=O)(=O)Nc1ccc(C(=O)/C=C/c2ccccc2)cc1` stands 16.3 µM (inactive); under `O=C(NO)c1cccc(OCc2ccc(Br)cc2)c1`, 3.06 µM (inactive).
Turning to `Cc1ccc(S(=O)(=O)OC(COC(=O)c2ccccc2)C(OS(=O)(=O)c2ccc(C)cc2)C(OS(=O)(=O)c2ccc(C)cc2)C(COC(=O)c2ccccc2)OS(=O)(=O)c2ccc(C)cc2)cc1` (stereo not given), the GI50 in test [2], in test [4], in test [5] and in test [6] was > 100 µM (inactive) each time.
For the molecule `O=C1/C(=C/c2cccs2)N=C(c2ccccc2)N1C1Nc2cc3c(cc2S1)NC(N1C(=O)/C(=C/c2cccs2)N=C1c1ccccc1)S3` (stereo not given), the GI50 in test [7] was 51.8 µM (inactive).
On the same count and under the same terms, under `CC1=C2c3c(C)ccc4ccc(C)c(c34)C2(O)C(C)C1=O` (stereo not given) stands 29.3 µM (inactive); under `Nc1ccc(C(=O)Nn2c(-c3ccccc3)nc3ccccc3c2=O)cc1`, > 100 µM (inactive).
Same read-out and setting: under `Cc1n[nH]c(C(F)(F)F)c1/N=N/N(C)C` stands 2.23 µM (inactive).
The same measure, in the same setting: under `CC1=C(O)C(=O)C=C2C1=CC=C1[C@@]2(C)CC[C@@]2(C)C3C[C@@H](C)C(=O)[C@@H](O)[C@]3(C)CC[C@]12C` (stereo not given in full) stands 1.64 µM (inactive).
Turning to `CC1/C(=N/O)CC(c2ccccc2)N(N=O)C1c1ccccc1` (stereo not given), the GI50 in test [7] was > 100 µM (inactive).
For the molecule `CNn1c(C)n[nH]c1=O`, the GI50 in test [7] was > 100 µM (inactive).
On the same count and under the same terms, under `N#Cc1c(N)nc2c(C#N)c(N)cc3c2c1Oc1ccccc1-3` stands > 100 µM (inactive); under `COc1ccc2c(c1)CC1Cc3cc(OC)c(OC)cc3CN1CC2` (stereo not given), 23.9 µM (inactive); under `C=C1CC(C#N)(C#N)[C@@H]2CC3CCCC3[C@H]12.C=C1CC(C#N)(C#N)[C@H]2C3CCCC3C[C@@H]12` (stereo not given in full), 31.9 µM (inactive).
Still for that read-out and setting: under `CN(Cc1ccccc1)c1cc(=O)n(C)c(=O)[nH]1` stands > 100 µM (inactive).
Still for that read-out and setting: under `COc1ccc(/C=C(\C#N)c2nc(-c3cc4ccccc4oc3=O)cs2)cc1` stands 52.5 µM (inactive); under `Cc1ccc(C(=O)Cn2c(C(=O)/C=C/c3cccs3)nc3ccccc32)cc1`, > 100 µM (inactive); under `O=P1(C(O)/C=C/c2ccccc2)N(Cc2ccccc2)[C@@H]2CCCC[C@H]2N1Cc1ccccc1` (stereo not given in full), 4.76 µM (inactive).
In the case of `CCC(=O)OC1CCn2c1nc1c2C(=O)C(C)=C(NC(C)=O)C1=O` (stereo not given), the GI50 is 1.84 µM (inactive) in test [1], 1.79 µM (inactive) in test [2], 1.76 µM (inactive) in test [5] and 1.79 µM (inactive) in test [6].
Regarding `CNC(=S)N/N=C1\C(=O)N(CN2CCOCC2)c2ccc([N+](=O)[O-])cc21`, the GI50 in test [7] is 18.9 µM (inactive).
The same measure, in the same setting: under `COC1=C(Br)[C@H](O)[C@@]2(C=C1Br)CC(C(=O)NCCCOc1c(Br)cc(C(O)CNC(C)=O)cc1Br)=NO2` (stereo not given in full) [APLYSINAMISINE III] stands > 10 µM (inactive); under `CCc1nc(N)nc(N)c1-c1ccc(Cl)c(Cl)c1` [ETOPRINE], > 100 µM (inactive); under `CC1=C2C(=C[C@@](C)(CO)[C@@H]2O)C(=O)[C@](C)(O)C12CC2` [ILLUDIN], 0.0123 µM (active).
